Test results taken from patent publication US9708318B2, “Bicyclic heterocycles as FGFR4 inhibitors” (Incyte Corporation, priority 2015, dated 2017).
Like-named read-outs stand apart in the source and are kept apart here.

Key:
[1] = target: FGFR2 (Homo sapiens (Human), UniProt P21802); assay: FGFR Enzymatic Assay (FRET peptide phosphorylation), FGFR2; format: biochemical
Experimental: (§1) The inhibitor potency of the exemplified compounds was measured in an enzyme assay that measures peptide phosphorylation using FRET measurements to detect product formation. Inhibitors were serially diluted in DMSO and a volume of 0.5 μL was transferred to the wells of a 384-well plate.
(§2) The enzymes were purchased from Millipore or Invitrogen.
(§3) GraphPad prism3 was used to analyze the data.

[2] = target: FGFR3 enzyme (Homo sapiens (Human), UniProt P22607); assay: FGFR Enzymatic Assay (FRET peptide phosphorylation), FGFR3; format: biochemical; details: for FGFR1/FGFR3 IC50 ratio / FGFR4/FGFR3 IC50 ratio: FGFR3 selectivity; for IC50: read-out: FGFR3 IC50
FGFR3 enzyme, sequence (P22607 23-806): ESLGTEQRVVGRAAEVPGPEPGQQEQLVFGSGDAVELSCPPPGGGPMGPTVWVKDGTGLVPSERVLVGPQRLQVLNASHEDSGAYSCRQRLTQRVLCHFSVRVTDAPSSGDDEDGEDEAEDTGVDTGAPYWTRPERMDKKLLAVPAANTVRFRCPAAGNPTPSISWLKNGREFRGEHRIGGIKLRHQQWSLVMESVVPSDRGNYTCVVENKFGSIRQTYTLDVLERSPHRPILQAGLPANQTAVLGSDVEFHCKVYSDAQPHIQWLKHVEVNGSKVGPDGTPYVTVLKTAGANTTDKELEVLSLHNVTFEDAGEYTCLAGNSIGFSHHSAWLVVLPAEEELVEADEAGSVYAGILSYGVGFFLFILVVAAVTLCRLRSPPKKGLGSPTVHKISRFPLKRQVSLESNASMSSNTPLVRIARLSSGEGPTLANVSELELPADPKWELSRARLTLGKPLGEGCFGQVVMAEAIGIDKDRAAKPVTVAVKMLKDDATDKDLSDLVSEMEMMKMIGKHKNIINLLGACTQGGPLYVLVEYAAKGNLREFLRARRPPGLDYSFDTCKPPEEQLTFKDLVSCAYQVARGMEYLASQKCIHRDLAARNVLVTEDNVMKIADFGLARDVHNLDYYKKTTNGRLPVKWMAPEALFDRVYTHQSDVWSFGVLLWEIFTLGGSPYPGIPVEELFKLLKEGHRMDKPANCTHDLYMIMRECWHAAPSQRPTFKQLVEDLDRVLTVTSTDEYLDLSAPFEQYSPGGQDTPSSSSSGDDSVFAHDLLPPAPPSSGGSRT
Experimental: as §1, §3

[3] = target: FGFR4 (Homo sapiens (Human), UniProt P22455); assay: FGFR Enzymatic Assay (FRET peptide phosphorylation), FGFR4; format: biochemical; details: for FGFR1/FGFR4 IC50 ratio / FGFR2/FGFR4 IC50 ratio / FGFR3/FGFR4 IC50 ratio: FGFR4 selectivity
FGFR4, sequence (P22455 22-802): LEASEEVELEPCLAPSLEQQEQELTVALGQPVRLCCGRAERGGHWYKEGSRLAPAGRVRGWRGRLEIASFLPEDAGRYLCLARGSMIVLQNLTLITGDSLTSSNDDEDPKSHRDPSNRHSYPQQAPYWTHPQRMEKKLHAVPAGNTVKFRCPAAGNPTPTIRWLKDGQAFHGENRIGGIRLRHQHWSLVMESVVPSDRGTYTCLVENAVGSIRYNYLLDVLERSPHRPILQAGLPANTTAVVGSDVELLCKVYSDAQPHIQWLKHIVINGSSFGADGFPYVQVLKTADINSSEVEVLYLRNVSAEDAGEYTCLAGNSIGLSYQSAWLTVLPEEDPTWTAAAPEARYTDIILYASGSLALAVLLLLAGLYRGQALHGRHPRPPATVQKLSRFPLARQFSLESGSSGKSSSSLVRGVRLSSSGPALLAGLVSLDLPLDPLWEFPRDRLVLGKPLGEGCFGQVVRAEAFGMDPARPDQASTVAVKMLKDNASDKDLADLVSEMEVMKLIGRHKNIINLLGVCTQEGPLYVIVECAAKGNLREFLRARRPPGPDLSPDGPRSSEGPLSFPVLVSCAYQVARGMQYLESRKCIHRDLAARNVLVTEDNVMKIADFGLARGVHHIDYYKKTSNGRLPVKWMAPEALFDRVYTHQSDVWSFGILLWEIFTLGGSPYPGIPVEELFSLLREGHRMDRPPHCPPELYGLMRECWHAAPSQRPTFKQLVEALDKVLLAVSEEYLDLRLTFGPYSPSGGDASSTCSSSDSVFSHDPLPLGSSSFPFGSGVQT
Experimental: as §1, §2, §3

[4] = target: FGFR1 (Homo sapiens (Human), UniProt P11362); assay: FGFR Enzymatic Assay (FRET peptide phosphorylation), FGFR1
FGFR1, sequence (P11362 22-822): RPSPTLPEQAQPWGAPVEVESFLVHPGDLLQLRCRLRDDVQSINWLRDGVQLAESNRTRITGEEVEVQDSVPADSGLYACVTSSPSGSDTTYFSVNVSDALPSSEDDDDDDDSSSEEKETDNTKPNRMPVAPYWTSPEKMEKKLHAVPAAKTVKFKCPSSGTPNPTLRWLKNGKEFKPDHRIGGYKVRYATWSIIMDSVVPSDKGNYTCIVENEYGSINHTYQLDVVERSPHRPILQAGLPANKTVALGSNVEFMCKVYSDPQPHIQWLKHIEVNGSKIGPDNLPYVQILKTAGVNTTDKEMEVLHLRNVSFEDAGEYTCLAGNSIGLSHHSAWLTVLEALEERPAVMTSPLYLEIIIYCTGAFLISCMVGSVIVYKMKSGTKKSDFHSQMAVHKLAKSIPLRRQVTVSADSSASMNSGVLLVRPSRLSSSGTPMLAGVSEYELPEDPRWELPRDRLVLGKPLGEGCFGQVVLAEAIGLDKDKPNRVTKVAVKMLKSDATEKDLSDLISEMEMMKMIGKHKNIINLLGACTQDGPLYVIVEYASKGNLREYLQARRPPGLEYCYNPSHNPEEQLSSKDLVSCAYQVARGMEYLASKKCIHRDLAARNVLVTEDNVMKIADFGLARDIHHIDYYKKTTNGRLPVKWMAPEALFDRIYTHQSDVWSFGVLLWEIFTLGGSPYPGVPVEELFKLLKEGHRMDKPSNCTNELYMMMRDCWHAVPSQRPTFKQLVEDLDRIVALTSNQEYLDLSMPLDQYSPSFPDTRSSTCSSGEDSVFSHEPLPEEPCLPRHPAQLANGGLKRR

[5] = FGFR1 IC50 (nM), pre-incubated for 4 hours
[6] = read-out: FGFR1 IC50, pre-incubated for 4 hours
[7] = pre-incubated for 5 to 10 minutes
[8] = read-out: FGFR1 IC50, pre-incubated for 5 to 10 minutes
[9] = FGFR1 IC50 (nM), pre-incubated for 5 to 10 minutes

FGFR2, sequence (P21802 22-821): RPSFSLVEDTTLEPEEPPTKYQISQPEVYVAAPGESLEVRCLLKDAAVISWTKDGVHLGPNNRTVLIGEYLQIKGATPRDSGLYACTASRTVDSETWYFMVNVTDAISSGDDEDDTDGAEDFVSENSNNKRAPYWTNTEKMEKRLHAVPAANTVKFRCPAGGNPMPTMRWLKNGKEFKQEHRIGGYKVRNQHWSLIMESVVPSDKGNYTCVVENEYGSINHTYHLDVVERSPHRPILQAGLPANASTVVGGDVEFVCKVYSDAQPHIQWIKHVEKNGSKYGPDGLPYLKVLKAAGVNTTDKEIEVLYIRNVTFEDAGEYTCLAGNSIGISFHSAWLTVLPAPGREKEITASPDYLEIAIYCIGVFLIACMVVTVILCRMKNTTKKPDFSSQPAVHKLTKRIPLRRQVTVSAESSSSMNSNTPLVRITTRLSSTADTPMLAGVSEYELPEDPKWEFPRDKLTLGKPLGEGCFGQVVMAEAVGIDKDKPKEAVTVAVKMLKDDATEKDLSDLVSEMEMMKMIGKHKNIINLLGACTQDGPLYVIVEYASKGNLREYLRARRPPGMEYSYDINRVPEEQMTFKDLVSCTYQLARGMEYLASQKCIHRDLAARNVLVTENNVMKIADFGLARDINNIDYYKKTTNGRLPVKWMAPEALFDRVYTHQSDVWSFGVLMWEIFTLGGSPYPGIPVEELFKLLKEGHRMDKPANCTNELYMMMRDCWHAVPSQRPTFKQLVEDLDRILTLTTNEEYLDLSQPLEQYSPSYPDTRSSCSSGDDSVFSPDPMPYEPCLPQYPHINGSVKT

Structure (SMILES) | IC50 ([1]; pre-incubated for 4 hours) | FGFR1/FGFR3 IC50 ratio ([2]; pre-incubated for 4 hours) | FGFR4/FGFR3 IC50 ratio ([2]; pre-incubated for 4 hours) | IC50 ([2]; pre-incubated for 4 hours) | IC50 ([3]; pre-incubated for 4 hours) | IC50 [4, 5] | IC50 [4, 6] | IC50 [1, 7] | IC50 [2, 7] | FGFR1/FGFR4 IC50 ratio [3, 7] | FGFR2/FGFR4 IC50 ratio [3, 7] | FGFR3/FGFR4 IC50 ratio [3, 7] | FGFR1/FGFR4 IC50 ratio ([3]; pre-incubated for 4 hours) | FGFR2/FGFR4 IC50 ratio ([3]; pre-incubated for 4 hours) | FGFR3/FGFR4 IC50 ratio ([3]; pre-incubated for 4 hours) | IC50 [3, 7] | IC50 [4, 8] | IC50 [4, 9]
COc1cc(OC)c(F)c(N2Cc3cnc(-c4cnn(CC5CN(S(C)(=O)=O)C5)c4)cc3C3(CC3)C2=O)c1F [Example 166, 2′-(2,6-difluoro-3,5-dimethoxyphenyl)-6′-(1-((1-(methylsulfonyl)azetidin-3-yl)methyl)-1H-pyrazol-4-yl)-1′H-spiro[cyclopropane-1,4′-[2,7]naphthyridin]-3′(2′H)-one] | < 10 nM | >3 | >3 | < 10 nM | 10 to 30 nM | 10 to 30 nM | – | – | – | – | – | – | – | – | – | – | – | –
COc1cc(OC)c(F)c(N2Cc3cnc(-c4cn(C)nc4C)cc3N(c3cncnc3)C2=O)c1F [Example 61, 3-(2,6-difluoro-3,5-dimethoxyphenyl)-7-(1,3-dimethyl-1H-pyrazol-4-yl)-1-(pyrimidin-5-yl)-3,4-dihydropyrido[4,3-d]pyrimidin-2(1H)-one] | 30 to 200 nM | >10 | >5 | 10 to 30 nM | > 200 nM | – | > 200 nM | – | – | – | – | – | – | – | – | – | – | –
COc1cc(OC)c(F)c(N2Cc3cnc(-c4cncc(S(=O)(=O)N5CCOCC5)c4)cc3C3(CC3)C2=O)c1F [Example 14, 2′-(2,6-difluoro-3,5-dimethoxyphenyl)-6′-(5-(morpholinosulfonyl)pyridin-3-yl)-1′H-spiro[cyclopropane-1,4′-[2,7]naphthyridin]-3′(2′H)-one] | 30 to 200 nM | >5 | – | 30 to 200 nM | < 10 nM | – | > 200 nM | 30 to 200 nM | 10 to 30 nM | >25 | >5 | >5 | >50 | >10 | >1 | < 10 nM | > 200 nM | –
COc1cc(OC)c(F)c(N2Cc3cnc(-c4nn(CC#N)cc4C#N)cc3C3(CC3)C2=O)c1F [Example 174, 1-(cyanomethyl)-3-(2′-(2,6-difluoro-3,5-dimethoxyphenyl)-3′-oxo-2′,3′-dihydro-1′H-spiro[cyclopropane-1,4′-[2,7]naphthyridine]-6′-yl)-1H-pyrazole-4-carbonitrile] | > 200 nM | – | – | > 200 nM | 10 to 30 nM | – | > 200 nM | – | – | – | – | – | >100 | >10 | >25 | – | – | –
CCn1cc(N2C(=O)N(c3c(F)c(OC)cc(OC)c3F)Cc3cnc(-c4cn(C)nc4C)cc32)cn1 [Example 131, 3-(2,6-difluoro-3,5-dimethoxyphenyl)-7-(1,3-dimethyl-1H-pyrazol-4-yl)-1-(1-ethyl-1H-pyrazol-4-yl)-3,4-dihydropyrido[4,3-d]pyrimidin-2(1H)-one] | 10 to 30 nM | >3 | >10 | 10 to 30 nM | > 200 nM | 30 to 200 nM | – | – | – | – | – | – | – | – | – | – | – | –
COc1cncc(-c2cc3c(cn2)CN(c2c(F)c(OC)cc(OC)c2F)C(=O)C32CC2)c1 [Example 10, 2′-(2,6-difluoro-3,5-dimethoxyphenyl)-6′-(5-methoxypyridin-3-yl)-1′H-spiro[cyclopropane-1,4′-[2,7]naphthyridin]-3′(2′H)-one] | 10 to 30 nM | >1 | – | 10 to 30 nM | < 10 nM | 30 to 200 nM | – | 10 to 30 nM | 10 to 30 nM | >25 | >10 | >10 | >25 | >25 | >10 | < 10 nM | – | 30 to 200 nM
COc1cc(OC)c(F)c(N2Cc3cnc(-c4cn(C)nc4C)cc3N(C[C@H]3CCOC3)C2=O)c1F [Example 108, (R)-3-(2,6-difluoro-3,5-dimethoxyphenyl)-7-(1,3-dimethyl-1H-pyrazol-4-yl)-1-((tetrahydrofuran-3-yl)methyl)-3,4-dihydropyrido[4,3-d]pyrimidin-2(1H)-one] | 10 to 30 nM | >3 | >3 | 10 to 30 nM | 30 to 200 nM | 30 to 200 nM | – | – | – | – | – | – | – | – | – | – | – | –
COc1cc(OC)c(F)c(N2Cc3cnc(-c4ccc(C5(C#N)CCC5)nc4)cc3N(c3cnn(C)c3)C2=O)c1F [Example 188, 1-{5-[3-(2,6-difluoro-3,5-dimethoxyphenyl)-1-(1-methyl-1H-pyrazol-4-yl)-2-oxo-1,2,3,4-tetrahydropyrido[4,3-d]pyrimidin-7-yl]pyridin-2-yl}cyclobutanecarbonitrile] | 10 to 30 nM | >5 | >5 | 10 to 30 nM | 30 to 200 nM | 30 to 200 nM | – | – | – | – | – | – | – | – | – | – | – | –
COc1cc(OC)c(F)c(N2Cc3cnc(-c4cn(C)nc4C)cc3N(c3ccc4cn[nH]c4c3)C2=O)c1F [Example 133, 3-(2,6-difluoro-3,5-dimethoxyphenyl)-7-(1,3-dimethyl-1H-pyrazol-4-yl)-1-(1H-indazol-6-yl)-3,4-dihydropyrido[4,3-d]pyrimidin-2(1H)-one] | < 10 nM | >3 | >5 | < 10 nM | 30 to 200 nM | 10 to 30 nM | – | – | – | – | – | – | – | – | – | – | – | –
CCN1C(=O)N(c2c(F)c(OC)cc(OC)c2F)Cc2cnc(-c3cn(CC(=O)N4CCOCC4)nc3C)cc21 [Example 51, 3-(2,6-difluoro-3,5-dimethoxyphenyl)-1-ethyl-7-(3-methyl-1-(2-morpholino-2-oxoethyl)-1H-pyrazol-4-yl)-3,4-dihydropyrido[4,3-d]pyrimidin-2(1H)-one] | 30 to 200 nM | >1 | >1 | 30 to 200 nM | > 200 nM | – | > 200 nM | – | – | – | – | – | – | – | – | – | – | –
COc1cc(OC)c(F)c(N2Cc3cnc(-c4[nH]ncc4C#N)cc3C3(CC3)C2=O)c1F [Example 171, 5-(2′-(2,6-difluoro-3,5-dimethoxyphenyl)-3′-oxo-2′,3′-dihydro-1′H-spiro[cyclopropane-1,4′-[2,7]naphthyridine]-6′-yl)-1H-pyrazole-4-carbonitrile] | 30 to 200 nM | – | – | 30 to 200 nM | < 10 nM | 30 to 200 nM | – | – | – | – | – | – | >10 | >10 | >10 | – | – | –
COc1cc(OC)c(F)c(N2Cc3cnc(-c4cn(C)nc4C)cc3N(Cc3ccnc(C)n3)C2=O)c1F [Example 121, 3-(2,6-difluoro-3,5-dimethoxyphenyl)-7-(1,3-dimethyl-1H-pyrazol-4-yl)-1-((2-methylpyrimidin-4-yl)methyl)-3,4-dihydropyrido[4,3-d]pyrimidin-2(1H)-one] | – | – | – | – | – | – | – | < 10 nM | < 10 nM | – | – | – | – | – | – | 30 to 200 nM | – | 10 to 30 nM
CCN1C(=O)N(c2c(F)c(OC)cc(OC)c2F)Cc2cnc(-c3cn(CCN4CCOCC4)nc3C)cc21 [Example 49, 3-(2,6-difluoro-3,5-dimethoxyphenyl)-1-ethyl-7-(3-methyl-1-(2-morpholinoethyl)-1H-pyrazol-4-yl)-3,4-dihydropyrido[4,3-d]pyrimidin-2(1H)-one] | < 10 nM | >5 | >1 | < 10 nM | 30 to 200 nM | 30 to 200 nM | – | – | – | – | – | – | – | – | – | – | – | –
CCN1C(=O)N(c2c(F)c(OC)cc(OC)c2F)Cc2cnc(-c3ccc(C(C)(C)C#N)nc3)cc21 [Example 26, 2-(5-(3-(2,6-difluoro-3,5-dimethoxyphenyl)-1-ethyl-2-oxo-1,2,3,4-tetrahydropyrido[4,3-d]pyrimidin-7-yl)pyridin-2-yl)-2-methylpropanenitrile] | < 10 nM | >5 | >5 | < 10 nM | 10 to 30 nM | 10 to 30 nM | – | – | – | – | – | – | – | – | – | – | – | –
CCn1cc(-c2cc3c(cn2)CN(c2c(F)c(OC)cc(OC)c2F)C(=O)C32CC2)c(C)n1 [Example 158, 2′-(2,6-difluoro-3,5-dimethoxyphenyl)-6′-(1-ethyl-3-methyl-1H-pyrazol-4-yl)-1′H-spiro[cyclopropane-1,4′-[2,7]naphthyridin]-3′(2′H)-one] | < 10 nM | >5 | >3 | < 10 nM | 10 to 30 nM | 30 to 200 nM | – | – | – | – | – | – | – | – | – | – | – | –
COc1cc(OC)c(F)c(N2Cc3cnc(-c4cn(C)nc4C)cc3N(c3ccc(CC#N)cc3)C2=O)c1F [Example 97, 2-(4-(3-(2,6-difluoro-3,5-dimethoxyphenyl)-7-(1,3-dimethyl-1H-pyrazol-4-yl)-2-oxo-3,4-dihydropyrido[4,3-d]pyrimidin-1(2H)-yl)phenyl)acetonitrile] | < 10 nM | >5 | >10 | < 10 nM | 30 to 200 nM | 30 to 200 nM | – | – | – | – | – | – | – | – | – | – | – | –
COc1cc(OC)c(F)c(N2Cc3cnc(-c4cncc(N5CCOCC5)c4)cc3C3(CC3)C2=O)c1F [Example 6, 2′-(2,6-difluoro-3,5-dimethoxyphenyl)-6′-(5-morpholinopyridin-3-yl)-1′H-spiro[cyclopropane-1,4′-[2,7]naphthyridin]-3′(2′H)-one] | > 200 nM | >3 | – | 30 to 200 nM | < 10 nM | – | > 200 nM | > 200 nM | 30 to 200 nM | >100 | >100 | >50 | >100 | >100 | >25 | < 10 nM | > 200 nM | –
